The source of these data is ChEMBL document CHEMBL1140743, “2-Oxotetrahydroquinoline-based antimalarials with high potency and metabolic stability” (J Med Chem, 2008).

Data set [1] has as its system Plasmodium falciparum. The data set is described as follows: Displacement of [3H]farnesylpyrophosphate from Plasmodium falciparum protein farnesyltransferase at 50 nM by scintillation proximity assay.
The subject of data set [2] is Plasmodium falciparum. The data set is described as follows: Displacement of [3H]farnesylpyrophosphate from Plasmodium falciparum protein farnesyltransferase at 0.5 nM by scintillation proximity assay.
For data set [3], the system named is Plasmodium falciparum. The experiment in a line: Displacement of [3H]farnesylpyrophosphate from Plasmodium falciparum protein farnesyltransferase at 5 nM by scintillation proximity assay.
Data set [4] relates to Plasmodium falciparum. The experiment in a line: Antimalarial activity against chloroquine-sensitive Plasmodium falciparum 3D7 in human red cells. In kind it is functional. The conditions noted are these: read-out: ED50 (the source's name).
The species entered for data set [5] is Rattus norvegicus. The experiment in a line: Inhibition of rat protein farnesyltransferase at 50 nM.
Data set [6] relates to Plasmodium falciparum. The experiment in a line: Antimalarial activity against chloroquine-resistant, pyrimethamine-resistant Plasmodium falciparum K1 in human red cells. In kind it is functional. The conditions noted are these: read-out: ED50 (the source's name).
The species entered for data set [7] is Rattus norvegicus. The data set is described as follows: Inhibition of rat protein farnesyltransferase at 5 nM.
For data set [8], the species on record is Rattus norvegicus. The data set is described as follows: Inhibition of rat protein farnesyltransferase at 5000 nM.
Data set [9] is described as follows: (§1) Metabolic stability assessed as half life in mouse liver microsomes. The format is ADME, Microsome. As to conditions: liver microsomes.
For data set [10], the species on record is Rattus norvegicus. The experiment in a line: Inhibition of rat protein farnesyltransferase at 500 nM.
Data set [11] is described as follows: Inhibition of Plasmodium falciparum PFT.
Data set [12] deals with Plasmodium falciparum. The data set is described as follows: Antimalarial activity against Plasmodium falciparum in human red cells. The format is functional. The conditions noted are these: read-out: ED50 (the source's name).
The subject of data set [13] is Liver. The data set is described as §1. In kind it is ADME, Microsome. The conditions noted are these: microsomes.

As for `Cn1cnc(S(=O)(=O)N(Cc2ccccn2)C2Cc3cc(C#N)ccc3N(Cc3cncn3C)C2=O)c1` (configuration not stated), the inhibition in data set [1] was 8%; in [2], 0%; in [3], 5%. In addition, the EC50 in [4] turned out to be 5000 nM.

As to `Cn1cnc(S(=O)(=O)N(CC(=O)NC(C)(C)C)C2Cc3cc(C#N)ccc3N(Cc3cncn3C)C2=O)c1` (configuration not stated), the inhibition in data set [1] stood at 98%; in data set [5], 0%; in [7], 0%; in data set [8], 86%; in [10] it was 62%; in [2], 25%. This compound registered an inhibition in data set [3] of 86%. The EC50 stood at 100 nM in data set [6] and 200 nM in data set [4]. The half-life in data set [9] amounted to 144 min.

Turning to `Cn1cncc1CN1C(=O)C(NS(=O)(=O)c2ccccn2)Cc2cc(Br)ccc21` (configuration not stated), the inhibition in [1] came to 36%; in data set [2] it was 0%; in data set [3], 15%. For the same compound, the EC50 in [6] and in data set [4] was 5000 nM each time.

`Cn1cnc(S(=O)(=O)N(Cc2ccc(S(C)(=O)=O)cc2)C2Cc3cc(C#N)ccc3N(Cc3cncn3C)C2=O)c1` (configuration not stated): the inhibition came out at 99% in data set [1]; 0% in [5]; 0% in data set [7]; 73% in data set [8]; 23% in data set [10]; 23% in [2]. Moreover, in data set [3], the inhibition came out at 91%. In addition, in data set [9], the half-life is 133 min. Moreover, the EC50 in [4] was 80 nM.

Consider `Cn1cnc(S(=O)(=O)NC2Cc3cc(Br)ccc3N(Cc3cncn3C)C2=O)c1` (configuration not stated), for which the inhibition in [1] was 60%; in data set [2], 5%; in data set [3], 15%. Further, the EC50 in data set [6] is 3000 nM; in data set [4] it was 5000 nM.

In the case of `COC(=O)C1CCC(CN(C2Cc3cc(C#N)ccc3N(Cc3cncn3C)C2=O)S(=O)(=O)c2cn(C)cn2)CC1` (configuration not stated), the inhibition in [1] worked out at 98%; in [2] it was 21%; in [3] it was 83%. Also, the EC50 in data set [4] was determined as 105 nM.

On to `Cn1cncc1CN1C(=O)C(N(CC(=O)NC(C)(C)C)S(=O)(=O)c2ccc3c(c2)OCCCO3)Cc2cc(C#N)ccc21` (configuration not stated), for which the results for the inhibition in [1], in data set [2] and in data set [3] were 22%, 0% and 4%, respectively. For the same compound, the EC50 in [4] was found to be 5000 nM.

For the compound `COC(=O)N1CCC(CN(C2Cc3cc(C#N)ccc3N(Cc3cncn3C)C2)S(=O)(=O)c2ccccn2)CC1` (configuration not stated), in data set [11], 0.5 nM corresponded to half-maximal inhibition (IC50). Also, in [12], the EC50 amounted to 15 nM.

Take `Cn1cnc(S(=O)(=O)N(Cc2ccc(S(C)(=O)=O)cc2)C2Cc3cc(Br)ccc3N(Cc3cncn3C)C2=O)c1` (configuration not stated): the inhibition in [1] was found to be 86%; in [5], 0%; in data set [7] it was 0%; in data set [8], 56%; in data set [10], 0%; in [2], 0%. Further, the inhibition in data set [3] turned out to be 26%. Moreover, the EC50 in data set [4] amounted to 850 nM.

For the compound `Cn1cnc(S(=O)(=O)N(Cc2ccc(S(C)(=O)=O)cc2)C2Cc3cc(C#N)ccc3N(Cc3cncn3C)C2)c1` (configuration not stated), the t1/2 in [13] stood at 16 min.

As for `Cn1cncc1CN1C(=O)C(N(Cc2ccc(S(C)(=O)=O)cc2)S(=O)(=O)c2ccccn2)Cc2cc(C#N)ccc21` (configuration not stated), the inhibition is 91% in [1], 15% in [2] and 60% in data set [3]. For the same compound, the EC50 in data set [6] turned out to be 275 nM; in [4], 1700 nM.

`Cn1cnc(S(=O)(=O)N(CC(=O)NC(C)(C)C)C2Cc3cc(C#N)ccc3N(Cc3cncn3C)C2)c1` (configuration not stated): in data set [9], the half-life stood at 17 min.

For the compound `Cn1cnc(S(=O)(=O)N(Cc2ccccc2)C2Cc3cc(C#N)ccc3N(Cc3cncn3C)C2=O)c1` (configuration not stated), the inhibition came to 98% in [1]; 0% in [5]; 0% in data set [7]; 61% in [8]; 5% in data set [10]; 45% in [2]. The compound also displayed an inhibition in data set [3] of 88%. The EC50 in [6] amounted to 100 nM; in data set [4] it was 175 nM.

As to `Cn1cnc(S(=O)(=O)N(CC(=O)OC(C)(C)C)C2Cc3cc(C#N)ccc3N(Cc3cncn3C)C2=O)c1` (configuration not stated), the inhibition in data set [1] was 100%; in data set [5], 23%; in data set [7] it was 0%; in data set [8] it was 92%; in data set [10] it was 75%; in data set [2], 62%. This compound gave an inhibition in [3] of 97%. Further, the EC50 in data set [6] stood at 30 nM; in data set [4], 35 nM. Moreover, the half-life in data set [9] was determined as 21 min.

Regarding `Cc1ccccc1CN(C1Cc2cc(C#N)ccc2N(Cc2cncn2C)C1=O)S(=O)(=O)c1cn(C)cn1` (configuration not stated), the inhibition is 45% in data set [1], 9% in [2] and 12% in data set [3]. The EC50 in data set [6] and in data set [4] was 5000 nM in each case.

For `Cn1cncc1CN1C(=O)C(N(CC(=O)NC(C)(C)C)S(=O)(=O)c2cccc(F)c2)Cc2cc(C#N)ccc21` (configuration not stated), the inhibition came out at 56% in data set [1], 0% in data set [2] and 19% in [3]. In addition, the half-life in data set [9] amounted to 31 min. Further, the EC50 in [4] worked out at 3600 nM.

As to `Cn1cnc(S(=O)(=O)N(CC(=O)NC(C)(C)C)C2Cc3cc(Br)ccc3N(Cc3cncn3C)C2=O)c1` (configuration not stated), the figures for the inhibition in data set [1], in data set [2] and in [3] were 98%, 24% and 81%, respectively. In data set [4], the EC50 was determined as 105 nM.

Turning to `Cn1cnc(S(=O)(=O)N(Cc2ccc(F)cc2F)C2Cc3cc(C#N)ccc3N(Cc3cncn3C)C2=O)c1` (configuration not stated), the inhibition in [1] came out at 80%; in [2], 4%; in [3], 27%.

`C=C(C)CN(C1Cc2cc(C#N)ccc2N(Cc2cncn2C)C1=O)S(=O)(=O)c1cn(C)cn1` (configuration not stated): the results for the inhibition in data set [1], in [2] and in [3] were 86%, 4% and 41%, respectively. In addition, the EC50 in data set [6] came to 2000 nM; in data set [4], 3200 nM.

Turning to `Cc1c(S(=O)(=O)N(CC(=O)NC(C)(C)C)C2Cc3cc(C#N)ccc3N(Cc3cncn3C)C2=O)ncn1C` (configuration not stated), the inhibition in [1] was found to be 24%; in data set [2], 6%; in [3], 11%. In addition, the EC50 in data set [6] and in data set [4] was 5000 nM each time.

In the case of `Cn1cnc(S(=O)(=O)N(Cc2ccc(-n3cccn3)cc2)C2Cc3cc(C#N)ccc3N(Cc3cncn3C)C2=O)c1` (configuration not stated), the inhibition in data set [1] was determined as 100%; in [5], 4%; in data set [7], 0%; in data set [8] it was 84%; in [10], 54%; in data set [2], 50%. In addition, in [3], the inhibition was 97%. Further, the figures for the EC50 in data set [6] and in [4] were 150 nM and 80 nM, respectively. For the same compound, in [9], the half-life is 9 min.

As to `Cn1cnc(S(=O)(=O)N(CC(=O)OC(C)(C)C)C2Cc3cc(C#N)ccc3N(Cc3cncn3C)C2)c1` (configuration not stated), the half-life in data set [9] is 10 min.

As for `Cn1cnc(S(=O)(=O)NC2Cc3cc(C#N)ccc3N(Cc3cncn3C)C2=O)c1` (configuration not stated), the results for the inhibition in data set [1], in data set [2] and in data set [3] were 79%, 0% and 41%, respectively.

Regarding `Cn1cnc(S(=O)(=O)N(C(CC(=O)OC(C)(C)C)C(=O)OC(C)(C)C)C2Cc3cc(C#N)ccc3N(Cc3cncn3C)C2=O)c1` (configuration not stated), the inhibition in [1], in data set [2] and in data set [3] was 0% in each case. The EC50 in data set [6] and in data set [4] was 5000 nM in each case.

Consider `Cn1cnc(S(=O)(=O)N(Cc2ccc(C#N)cc2)C2Cc3cc(C#N)ccc3N(Cc3cncn3C)C2)c1` (configuration not stated), for which the half-life in data set [9] worked out at 3 min.

`Cn1cnc(S(=O)(=O)N(Cc2ccccc2F)C2Cc3cc(C#N)ccc3N(Cc3cncn3C)C2=O)c1` (configuration not stated): the inhibition is 97% in data set [1], 33% in [2] and 71% in data set [3]. Further, the EC50 in data set [4] was 800 nM.

`Cn1cnc(S(=O)(=O)N(Cc2ccc(C#N)cc2)C2Cc3cc(C#N)ccc3N(Cc3cncn3C)C2=O)c1` (configuration not stated): the inhibition is 91% in data set [1], 26% in data set [2] and 56% in data set [3]. Besides, the EC50 in [6] and in [4] was 2100 nM in each case. The half-life in data set [9] worked out at 40 min.

Turning to `Cn1cnc(S(=O)(=O)N(CC(=O)c2ccsc2)C2Cc3cc(C#N)ccc3N(Cc3cncn3C)C2=O)c1` (configuration not stated), the inhibition in data set [1] is 98%; in data set [2] it was 26%; in data set [3], 79%.

As to `Cn1cnc(S(=O)(=O)N(Cc2ccc(C(F)(F)F)o2)C2Cc3cc(C#N)ccc3N(Cc3cncn3C)C2=O)c1` (configuration not stated), the results for the inhibition in [1], in data set [2] and in [3] were 92%, 1% and 67%, respectively. Moreover, the EC50 turned out to be 325 nM in [6] and 625 nM in data set [4].
